Assay results reported in patent US20220228054A1, “FLUORESCENT NAPHTHALIMIDE POLYMERS AND SOLUTIONS THEREOF FOR SCALE CONTROL IN AQUEOUS SYSTEMS” (NOURYON CHEMICALS INTERNATIONAL B.V., priority 2019, published 2022).

Tests used:
Type in all cases: physicochemical
[1] = Solubility in acrylic acid; conditions: 1.39 g in 10.5 g of acrylic acid
Experimental: The solubility of the monomer reaction product of Monomer Example 2 in acrylic acid was measured in the following manner. 10 g of acrylic acid was taken and the dried monomer reaction product of Monomer Example 2 was added in 0.2 g aliquots. The Monomer Example 2 reaction product started to become insoluble after 1.39 g was added. Next, 0.5 g of acrylic acid was added to form a clear solution. The final solution had 1.39 g of reaction product of Example 2 in 10.5 g of acrylic acid. The weight of reaction product of Example 2 was 11.7% of the total solution weight.

[2] = LC/FLD and GC/MS fluorescence of monomer species; conditions: for excitation maximum: at the emission maximum; for emission maximum: zero order excitation
Experimental: The sample of this example was initially analyzed by LC/MS to identify the retention times of target peaks. The same sample was then analyzed using similar, but weaker LC conditions by LC/FLD. The first step was to collect emission spectra with zero order excitation, this allows determining the emission maximum, which was 410 nm for the N-allyl-4-propoxy-1,8-naphthalimide and 450 nm for the N-allyl-4,5-dipropoxy-1,8-naphthalimide species.
The next step was to collect excitation spectra at the emission maximum for each compound. This allows determining the individual excitation maximum, which was 375 nm and 395 nm for the N-allyl-4-propoxy-1,8-naphthalimide and the N-allyl-4,5-dipropoxy-1,8-naphthalimide species respectively. The final step is to collect a chromatogram at the individual excitation and emission maxima. The latter two steps are each done with time programming the wavelengths, so each only require a single chromatogram.
Then the sample was analyzed by GC/MS to estimate the actual concentrations of the two components of interest. The ratio of the area percent by fluorescence and mass spec is the estimated relative fluorescence intensity. […] This assumes that the GC/MS area percent is the actual weight percent, which should be a close approximation.

Solubility in water = assay: Solubility in water
Experimental: The procedure of Example 4 in RU2640339 was repeated. An initial charge of 84 g of deionized water and 1 g of ammonium persulfate was placed in a 250 ml glass reactor with inlet ports for an agitator, water cooled condenser, thermocouple. 15 g of acrylic acid (0.208 moles, 99.73 mole percent of polymer) was weighed into a beaker and then 0.15 g of N-allyl-4-methoxy-1,8-naphthalimide (Monomer Example 2, formula weight 267, 0.00056 moles, […] of polymer) was added to the beaker and mixed until the powdered fluorescent monomer dissolved. This solution was then added to the reactor, with stirring. The reaction mixture was very cloudy, indicating insolubility of the N-allyl-4-methoxy-1,8-naphthalimide in the reaction mixture. The reactor contents were slowly heated to 85° C. When the temperature reached about 80° C., a strong exotherm was observed. The reaction mixture started to thicken and within minutes, a sticky, intractable mass was formed and started to rise up the stir shaft. An attempt was made to remove some of the reaction product from the reactor and try and dissolve it in water.

excitation maximum [2] [nm]	emission maximum [2] [nm]	SMILES	other results
		C=CCN1C(=O)c2cccc3c(OC)ccc(c23)C1=O [Monomer Example 2, N-allyl-4-methoxy-1,8-naphthalimide]	solubility in acrylic acid (weight of reaction product in clear solution) [1]: 11.7 % of the total solution weight
375	410	C=CCN1C(=O)c2cccc3c(OCCC)ccc(c23)C1=O [Monomer Example 3, N-allyl-4-propoxy-1,8-naphthalimide]	
		C=CCOc1ccc2c3c(cccc13)C(=O)N(CCC)C2=O [Monomer Example 4, N-propyl-4-allyloxy-1,8-naphthalimide]	solubility in water (in words) (Solubility in water): insolubility
		C=CCN1C(=O)c2cccc3c(OCCOCCOCCOC)ccc(c23)C1=O [Monomer Example 5, N-allyl-4-(methoxy, triethylene glycol) 1,8-naphthalimide]	solubility in water (Solubility in water; 25° C., pH 7): less than 0.1 grams per 100 mis of water
395	450	C=CCN1C(=O)c2ccc(OCCC)c3c(OCCC)ccc(c23)C1=O [N-allyl-4,5-dipropoxy-1,8-naphthalimide]	
